System: gram negative and gram positive bacilli
Test: Ozone treatment of precipitated calcium carbonate slurry; bioburden / log reduction of bacteria at sampling points
Type: cell-based
Procedure: A precipitated calcium carbonate slurry was prepared as shown FIG. 1. At the precipitation phase of the “Region of High Microbial Growth”, FIG. 1), the slurry was contaminated with gram negative and gram positive bacilli. The shiny was then continuously transferred from a precipitation tank (not shown) to a neutralization tank (100). Upon entry into the neutralization tank, the slurry was neutralized using carbon dioxide. A sample was collected from the neutralization tank to assess the initial bioburden of the slurry (3.6×10^6 CFU/g). After neutralization, 3.5 or 5 ppm (depending on trial) of ozone was injected into the slurry after circulation through the pump (120) (FIG. 3). […] The pH of the slurry in the neutralization tank ranged from 6.9 to 8.3 and the temperature ranged from 24° C. to 46° C.
The degree of log reduction in bacteria was sampled at sampling point 1 (160) (FIG. 3) at time zero and every five minutes up to 40 minutes. As depicted in Table 1, below, a 1-2 log reduction of bacteria was observed after 40 minutes under recirculation.
A precipitated calcium carbonate slurry was prepared according to Example 1. Five trials were conducted. The ozone was injected as described in Example 1 at a concentration ranging from 5 ppm to 25 ppm. Samples were taken after 40 minutes of recirculation, 40 minutes after ozone contact with the slurry in the neutralization tank (100) or immediately after the slurry passed through the static mixer (140) as shown in FIG. 3. […] This difference is log reduction may be attributable to the mixing of ozone-treated slurry in the neutralization tank (100) with the non-treated slurry from the precipitation tank (not shown).
The sampling variability was confirmed in further trials by assessing the ozone concentration before and after ozone treatment and assessing the bioburden from samples taken at sampling point 1 (160) or sampling point 2 (150). In one trial, an initial bioburden (without ozone) of a sample collected from the slurry tank was 3.6×10^6 CFU/g. After an ozone injection at a 5 ppm concentration, the amount of bioburden was reduced to 1.7×10^4 CFU/g after 40 minutes recirculation. […] However, when a sample in the third trial was collected and tested at sampling point 2 (150) a few seconds after ozone injection, the bioburden was less than 10 CFU/g. Accordingly, the data support that the disclosed process using ozone treatment is capable of reducing an initial bioburden by 5 log, i.e., 10^6 to 10^1 CFU/g.

SMILES: O=[O+][O-] [ozone]
- log reduction of bacteria (Example 1 summary, 3.5 or 5 ppm ozone, sampling point 1, after 40 minutes under recirculation): 1-2 log
- Log Reduction (Example 1 trial T1, sampling point 1, ozone 5.0 ppm, 12% PCC, pH 8.3, 24 °C, 40 minutes under recirculation): 2 log
- Log Reduction (Example 1 trial T2, sampling point 1, ozone 5.0 ppm, 28% PCC, pH 7.2, 33 °C, 40 minutes under recirculation): 2 log
- Log Reduction (Example 1 trial T3, sampling point 1, ozone 3.5 ppm, 39% PCC, pH 6.9, 33 °C, 40 minutes under recirculation): 1 log
- Log Reduction (Example 1 trial T4, sampling point 1, ozone 5.0 ppm, 39% PCC, pH 6.9, 46 °C, 40 minutes under recirculation): 2 log
- log reduction of bacteria (Example 2 summary, higher ozone injection (25 ppm)): 4-5 log
- log reduction of bacteria (Example 2 summary, lower concentrations of injected ozone): 1-2 log
- Log Reduction (Example 2 trial T1, sampling point 1, ozone 7.5 ppm, Recirculation, pH 8.3, 40 minutes): 2 log
- Log Reduction (Example 2 trial T2, sampling point 1, ozone 7.5 ppm, Recirculation, pH 7.2, +40 minutes): +2 log
- Log Reduction (Example 2 trial T3, sampling point 1, ozone 5 ppm, Within Tank, pH 6.9, 40 minutes): 1 log
- Log Reduction (Example 2 trial T4, sampling point 1, ozone 25 ppm, Recirculation, pH 6.9, 40 minutes): 2 log
- Log Reduction (Example 2 trial T5, sampling point 2, ozone 25 ppm, After initial flow through static mixer, pH 6.9, seconds): 4-5 log
- bioburden (Example 3 another trial, initial bioburden 8.8×10^5 CFU/g, sampling point 2, seconds after ozone injection): 7.0×10^1 CFU/g
- reduction of initial bioburden (Example 3 conclusion, 10^6 to 10^1 CFU/g): 5 log
- bioburden (Example 3 first trial, initial bioburden 3.6×10^6 CFU/g, ozone 5 ppm, after 40 minutes recirculation): 1.7×10^4 CFU/g
- bioburden (Example 3 first trial, initial bioburden 3.6×10^6 CFU/g, ozone 5 ppm, sampling point 2): 9.1×10^1 CFU/g
- bioburden (Example 3 third trial, sampling point 1, after ozone treatment and 40 minutes recirculation (mixed with untreated slurry)): 8.8×10^5 CFU/g
- bioburden (Example 3 third trial, sampling point 2, a few seconds after ozone injection): less than 10 CFU/g
